In article PMC13147323, “EGFR-Targeted and MMP-Activated Membranolytic Peptides Kill Cancer Cells Specifically In Vitro and Reduce Tumor Growth In Vivo” (Molecular Pharmaceutics, 2026):
Residues, ends and D or L forms follow the SMILES beside them.

Legend:
[1] = test system: HB2 cells; assay type: cell-based, human; conditions: 24 h
Description: (§1) MDA-MB-468, MDA-MB-231, BT-474, AU-565, HB2, and MCF-10A cells were procured from American Type Culture Collection (ATCC) and validated for lack of mycoplasma contamination (MycoAlert; Lonza, Basel, Switzerland) and identity (short tandem repeat profiling; Source Bioscience, Nottingham, UK). Cells (except MCF-10A) were cultured in Dulbecco’s modified Eagle medium (DMEM) supplemented with 10% (v/v) fetal calf serum (FCS) and 100 units/mL penicillin–streptomycin (Thermo Scientific; Waltham, MA, USA). MCF-10A was cultured in DMEM supplemented with 5% horse serum, 0.1 μg/mL cholera toxin, 0.5 μg/mL hydrocortisone, 0.02 μg/mL epidermal growth factor, and 100 units/mL penicillin–streptomycin (Thermo Scientific, Waltham, MA, USA). Cells were grown at 37 °C in a humidified incubator with 5% CO2. Cells were maintained and experiments were performed under conditions ensuring cell densities that supported exponential growth.
(§2) Cells were seeded in 96-well plates at 1 × 10^4 cells/well in complete growth media and incubated for 18 h. Cells were then treated with peptides (0–250 μM) for up to 24 h. Cells were then incubated with 0.5 mg/mL MTT dissolved in PBS for 3 h. Formazan crystals were dissolved using […] of isopropanol and absorbance was measured at 570 nm on a microplate spectrophotometer (Biotech Instruments, USA). For spheroids assays, MDA-MB-468 or HB2 cells (1000 cells/well) were seeded in 250 μL of DMEM supplemented with 10% FCS and 2.5% Matrigel (Corning, New York, USA) in low-adherent, round-bottom 96-well plates (Corning, New York, USA). The plates were centrifuged at 360g for 10 min and subsequently incubated for 48 h to allow spheroid formation. MDA-MB-468 or HB2 spheroids were then treated with peptides at the IC50 doses determined for MDA-MB-468 cells for 24 h. Cellular viability within spheroids was assessed by staining with Hoechst 33342 (5 μg/mL) for 30 min, followed by propidium iodide (PI) (1.5 μg/mL) for 10 min. Red fluorescence indicated nonviable cells stained with PI, whereas blue fluorescence represented both viable and nonviable cells stained with Hoechst 33342. The survival of spheroids was determined by calculating ratios of blue/red fluorescence using ImageJ software.
(§3) A panel of human breast epithelial cell lines was established, including two lines from a nontransformed origin (MCF-10A; HB2) and four cancer lines (BT-474; AU-565; MDA-MB-231; MDA-MB-468). Cells were treated with different doses of MP1 or the modified peptides. Survival was assessed relative to untreated using MTT assays (Figures and S2) and IC50 doses were determined for each peptide in each cell line.

[2] = test system: MDA-MB-468 cells; assay type: cell-based, human; conditions: 24 h
Description: as §1, §2, §3

[3] = test system: BT-474 cells; assay type: cell-based, human; conditions: 24 h
Description: as §1, §2, §3

[4] = test system: MCF-10A cells; assay type: cell-based, human; conditions: 24 h
Description: as §1, §2, §3

[5] = test system: AU-565 cells; assay type: cell-based, human; conditions: 24 h
Description: as §1, §2, §3

[6] = test system: MDA-MB-231 cells; assay type: cell-based, human; conditions: 24 h
Description: as §1, §2, §3

[7] = test system: red blood cells; assay: Ex vivo hemolysis assay; assay type: cell-based; conditions: mouse RBCs 1:50 in PBS, three doses, 1 h, 37 °C, absorbance 540 nm
Description: Blood was collected from five 10-week-old male C57BL/6 mice via cardiac puncture following cervical dislocation, using pediatric blood collection tubes containing K3 EDTA (Greiner; Slušovice, Czechia). Blood was centrifuged (500g; 5 min; 4 °C) and plasma was removed. Red blood cells (RBCs) were resuspended to their original volume using 150 mM NaCl. RBCs were repeatedly washed and diluted to 1:50 in PBS. For a positive control, 1% (v/v) Triton X-100 was used (100% lysis), while cells incubated in PBS served as a negative control (0% lysis). 200 μL of RBCs in triplicate was treated with peptides and incubated on an orbital shaker (100 rpm; 1 h; 37 °C). Samples were centrifuged (500g; 5 min) and supernatants, containing lysed RBCs, were collected. Hemolysis was quantified by measuring absorbance at 540 nm.
Our next aim was to assess whether our various peptides had potential as anticancer therapeutics using an in vivo model. To our knowledge, MP1 or MP1-derived peptides have not previously been used experimentally in vivo, therefore we first performed an in vitro hemolysis assay to aid selection of peptides that could be suitable for intravenous delivery. Red blood cells were isolated from mouse blood and treated with three different doses of MP1 wildtype or our targeted peptides (EGFR and EGFR-MMP versions of both MP1 and D2K) and hemolysis was measured (Figure A).

[8] = test system: MDA-MB-468 xenografts; assay: MDA-MB-468 xenograft study in NCG mice; assay type: in vivo, mouse; conditions: 500 μg i.v. days 1, 3, 5, monitored 27 days, recovered by the end of the experiment
Description: These were performed by HD Biosciences (Shanghai, China). Procedures related to handling, care, and treatment of animals were performed according to guidelines approved by the HD Biosciences Institutional Animal Care and Use Committee (reference number AUC105), under the criteria of the Association for Assessment and Accreditation of Laboratory Animal Care (AAALAC). Protocols and AAALAC accreditation were reviewed by the Animal Welfare and Ethical Review Committee at the University of Leeds and were approved (reference number THAWERC222707; date 28/7/2022). Protocols and data are reported in accordance with the ARRIVE guidelines (https://arriveguidelines.org/arrive-guidelines). Female NCG mice (6–8 weeks old) were purchased from GemPharmatech Ltd. (Nanjing, China). […] Two groups were used: control group (13 animals) and test group (7 animals); group sizes were not determined by power calculation due to lack of data on which this could be based. […] Tumor volumes were monitored using calipers, and body weight was monitored throughout the experiment; no animals were excluded. […]
NCG immune-compromised female mice were implanted subcutaneously with MDA-MB-468 xenografts. […] Tumor size and animal weight were monitored every 2 to 3 days for a total of 27 days, after which animals were sacrificed and tumors were dissected and weighed. […]

CC[C@H](C)[C@H](N)C(=O)N[C@@H](CC(=O)O)C(=O)N[C@@H](Cc1c[nH]c2ccccc12)C(=O)N[C@@H](CCCCN)C(=O)N[C@@H](CCCCN)C(=O)N[C@@H](CC(C)C)C(=O)N[C@@H](CC(C)C)C(=O)N[C@@H](CC(=O)O)C(=O)N[C@@H](C)C(=O)N[C@@H](C)C(=O)N[C@@H](CCCCN)C(=O)N[C@@H](CCC(N)=O)C(=O)N[C@H](C(=O)N[C@@H](CC(C)C)C(=O)NCC(=O)N1CCC[C@H]1C(=O)N[C@@H](CC(C)C)C(=O)NCC(=O)N[C@H](C(=O)N[C@@H](C)C(=O)NCC(=O)N[C@@H](CCC(N)=O)C(=O)N[C@@H](Cc1ccc(O)cc1)C(=O)N[C@@H](Cc1c[nH]cn1)C(=O)N[C@@H](Cc1c[nH]c2ccccc12)C(=O)N[C@@H](Cc1ccc(O)cc1)C(=O)NCC(=O)N[C@@H](Cc1ccc(O)cc1)C(=O)N[C@H](C(=O)N1CCC[C@H]1C(=O)N[C@@H](CCC(=O)O)C(=O)N[C@@H](CC(N)=O)C(=O)N[C@H](C(=O)N[C@H](C(=O)O)[C@@H](C)CC)C(C)C)[C@@H](C)O)[C@@H](C)CC)[C@@H](C)CC [EGFR-MMP-MP1] (H-IDWKKLLDAAKQILGPLGIAGQYHWYGYTPENVI-OH)
IC50 [1]: 92.4 µM | IC50 [2]: 56.6 µM | selectivity index (IC50 noncancer line / IC50 cancer line) [2]: 1.63 | IC50 [3]: 116 µM | IC50 [4]: 114 µM | IC50 [5]: 105 µM | IC50 [6]: 57.9 µM | hemolysis (in words) [7]: low hemolysis at relevant doses | animal weights as surrogate for side-effects [8]: slightly reduced
